Assay results: article PMC8121435, “Cork-in-bottle mechanism of inhibitor binding to mammalian complex I” (Science Advances, 2021)
“And” between values parts separate entries of the source, which are not always exact repeats. Identical values can stand only once.

Tests used:
Type in all cases: biochemical
[1] = molecular target: T1, mouse complex I (Mus musculus, UniProt P03888+Q91WD5+Q9DC70); assay: NADH:decylubiquinone oxidoreduction by purified mouse complex I; conditions: purified mouse complex I ~0.5 nM, 200 μM dQ, 200 μM NADH, 32°C; Hill slope constrained to −1; ± SE
T1 construct: from tissue; host or cells: mouse (C57BL/6) heart mitochondria
Protocol: (§1) All catalytic activity assays were conducted at 32°C in 96-well plates using a Molecular Devices Spectramax 384 plus plate reader. Catalysis was initiated by addition of 200 μM NADH and monitored at 340 and 380 nm (ε340–380 = 4.81 mM^−1 cm^−1). Linear rates were measured for all assays, inhibitors were added from dimethyl sulfoxide stock solutions as required, and inhibitor-insensitive rates (using either 1 μM piericidin A or 1.4 μM IACS-2858) were subtracted from each measured rate. Membrane samples were prepared as described previously ([17], [20], [59], [60]), diluted to 20 μg ml^−1 in 10 mM tris-SO4 (pH 7.5) and 250 mM sucrose, and supplemented with 3 μM horse heart cytochrome c (except for P. denitrificans, for which the activity is unaffected by the addition). Mouse, bovine, and yeast (Y. lipolytica) complex I were purified as described previously ([17], [20], [59]); diluted to 0.5 nM in 20 mM tris-HCl (pH 7.5), 0.15% asolectin, and 0.15% CHAPS; and assayed using either 200 μM dQ or 200 μM ubiquinone-1 (Sigma-Aldrich). Complex I was purified from P. denitrificans strain Pd1222 ([61]) and provided by O. D. Jarman (MRC Mitochondrial Biology Unit, University of Cambridge); it was assayed likewise but in 10 mM MES-HCl (pH 6.5), 25 mM NaCl, and 2 mM CaCl2. Bovine SMPs were prepared as described previously ([61]) and diluted to 20 μg ml^−1 in 10 mM tris-SO4 (pH 7.5) and 250 mM sucrose for FET and RET assays. The RET assay was initiated using 1 mM NAD^+, 1 mM ATP, 10 mM succinate, 1 mM cyanide, and 2 mM MgSO4, in the absence of NADH. AOX from Trypanosoma brucei brucei was prepared as described previously ([23]). Complex I proteoliposomes were assayed using 10 mM Mops-KOH (pH 7.5), 50 mM KCl, and AOX (10 μg ml^−1).

[2] = molecular target: T2, complex I in bovine SMPs (Bos taurus, UniProt P03887+P17694+P42026); assay: Reverse electron transport (succinate oxidation-driven NAD+ reduction) in bovine heart submitochondrial particles
T2 construct: Complex I from bovine heart were prepared; from tissue; host or cells: bovine heart mitochondria
Protocol: as §1

[3] = molecular target: T1, mouse complex I; assay: Extent of inhibition of isolated IACS-2858-bound mouse complex I prepared for cryo-EM; conditions: isolated inhibitor-bound enzyme after size exclusion, initial rate versus control without inhibitor; cryo-EM sample
Protocol: Complex I inhibited by IACS-2858 was prepared by a method adapted from that of Bridges et al. ([23]) for preparing mouse complex I inhibited by piericidin A1. C57BL/6 mice were euthanized by cervical dislocation in accord with the UK Animals (Scientific Procedures) Act 1986 (PPL: P6C97520A, approved by the local ethics committee and the UK Home Office), and mitochondrial membranes were prepared from heart tissue as described previously ([20]). Starting from membranes containing ~40 mg of total protein, the proteins were solubilized from the membranes by addition of 1% DDM (Glycon), and the mixture was centrifuged. […] The level of inhibition achieved was determined by comparing the initial rates of catalysis by the control and inhibited samples in buffer containing 20 mM tris-HCl (pH 7.5 at 32°C), 0.15% soy bean asolectin (Avanti Polar Lipids), and 0.15% CHAPS (Merck Chemicals Ltd.), using 200 μM dQ, with catalysis initiated by 200 μM NADH and monitored at 340 to 380 nm (ε = 4.81 mM^−1 cm^−1). […] The concentration of the peak fraction for the inhibited protein, eluting at ~1.65 ml, was estimated using a NanoDrop ultraviolet-visible spectrophotometer [ε280 = 0.2 (mg ml^−1)^−1], and the level of inhibition of the final eluted IACS-2858–treated sample was determined as above. […]

## CS(=O)(=O)C1CCN(c2cccc(Cn3cc(-c4nc(-c5ccc(OC(F)(F)F)cc5)no4)ccc3=O)c2)CC1 [IACS-2858, 1-(3-(4-(Methylsulfonyl)piperidin-1-yl)benzyl)-5-(3-(4-(trifluoromethoxy)phenyl)-1,2,4-oxadiazol-5-yl)pyridin-2(1H)-one]
[1]
  IC50: 2.8 nM
[2]; bovine SMPs, succinate oxidation-driven NAD+ reduction rate, ± SE
  IC50: 3.1 ± 0.1 nM
[2]; bovine heart SMPs, RET versus FET
  inhibition of RET favoured over FET: > 2 fold
[3]
  extent of inhibition: 81 ± 5% and 81.3 ± 4.7%
